These compounds were tested against T1, ROMK (Kir1.1) (Homo sapiens, UniProt P48048) (assay: 86Rb+ Efflux Assay, described in WO2013/062892 at pages 79-80). Details: values marked "(Rb)" in Table 10.
T1 sequence (P48048 1-391): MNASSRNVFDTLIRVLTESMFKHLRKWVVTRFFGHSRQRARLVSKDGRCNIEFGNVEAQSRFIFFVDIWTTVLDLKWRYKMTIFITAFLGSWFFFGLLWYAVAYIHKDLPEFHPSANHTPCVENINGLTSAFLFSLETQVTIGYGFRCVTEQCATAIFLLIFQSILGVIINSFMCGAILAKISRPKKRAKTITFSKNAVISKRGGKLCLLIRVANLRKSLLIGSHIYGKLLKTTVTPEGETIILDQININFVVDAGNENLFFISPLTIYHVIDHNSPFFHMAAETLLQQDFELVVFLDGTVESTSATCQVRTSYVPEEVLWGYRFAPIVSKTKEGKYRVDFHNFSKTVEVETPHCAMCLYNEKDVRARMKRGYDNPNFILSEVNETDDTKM
Format: cell-based
Description: The data for Examples 2, 3, 4, 8, 9, 10, 15 and 32 were obtained using the ^86Rb^+ Efflux Assay, described in WO2013/062892 at pages 79-80.

Row | IC50 | SMILES
1 | 380 nM | Cc1c(CCN2CCc3c(cnn3-c3ccc(-n4cnnn4)cc3)C2)ccc2c1COC2=O [Example 8, 4-methyl-5-(2-{1-[4-(1H-tetrazol-1-yl)phenyl]-1,4,6,7-tetrahydro-5H-pyrazolo[4,3-c]pyridin-5-yl}ethyl)-2-benzofuran-1(3H)-one]
2 | 96.1 nM | Cc1c(CCN2CCc3nc(-c4ccc5c(c4)COC5=O)ncc3C2)ccc2c1COC2=O [Example 9, 4-methyl-5-{2-[2-(1-oxo-1,3-dihydro-2-benzofuran-5-yl)-7,8-dihydropyrido[4,3-d]pyrimidin-6(5H)-yl]ethyl}-2-benzofuran-1(3H)-one]
3 | 66 nM | Cc1c(CCN2CCc3c(cnn3-c3ccc4c(c3)COC4=O)C2)ccc2c1COC2=O [Example 10, 4-methyl-5-{2-[1-(1-oxo-1,3-dihydro-2-benzofuran-5-yl)-1,4,6,7-tetrahydro-5H-pyrazolo[4,3-c]pyridin-5-yl]ethyl}-2-benzofuran-1(3H)-one]
4 | 197 nM | COc1cc(-c2cn3c(n2)CN(CCc2ccc4c(c2C)COC4=O)CC3)ccc1C#N [Example 15, 2-methoxy-4-{7-[2-(4-methyl-1-oxo-1,3-dihydro-2-benzofuran-5-yl)ethyl]-5,6,7,8-tetrahydroimidazo[1,2-a]pyrazin-2-yl}benzonitrile]
5 | 69.9 nM | Cc1c(C(O)CN2CCc3nc(-c4ccc5c(c4)COC5=O)ncc3C2)ccc2c1COC2=O (centres unmarked) [Example 32, 5-{1-hydroxy-2-[2-(1-oxo-1,3-dihydro-2-benzofuran-5-yl)-7,8-dihydropyrido[4,3-d]pyrimidin-6(5H)-yl]ethyl}-4-methyl-2-benzofuran-1(3H)-one]
